# Columns and labels:
# STAT3 = assay: Western blot of STAT3 phosphorylation in C2C12 cells; format: cell-based, mouse; conditions: C2C12 myoblast cells, 5 to 20 min after stimulation
# Experimental: Cell lysis, fractionation, and SDS-PAGE were conducted in accordance with procedures described previously (Yang Y C et al., BMC Cancer 2007; 7:216). Antibodies used in this study were for Phospho-Stat3 and STAT3 (1:1000-fold dilution). Proteins of interest were detected using the appropriate IgG-HRP secondary antibody (Santa Cruz Biotechnology) and ECL reagent (Amersham Biosciences).
# [1] = tested on: STZ-induced diabetic mice; assay: Vascular abnormalities (FITC-BSA hemorrhaging areas) in the retina of STZ-induced diabetic mice; format: in vivo, mouse; conditions: 200 μM eye drop three times a day for 14 days, vehicle control 8.2±1.5
# Experimental: Diabetic mice were generated by intraperitoneal injection of streptozotocin (STZ; 200 mg/kg body weight) at day 1 and day 3. STZ was freshly prepared in 0.1 M citrate buffer (pH 4.5). After injection, mice were supplied with 10% sucrose overnight to prevent sudden hypoglycaemic shock. After 1 week (day 7), mice with non-fasting blood glucose levels >500 mg/dl were defined as diabetic and used for the experiments. Balanced salt solution (BSS) was served as peptide vehicle (Alcon, Novartis). 6-mer analogues (dissolved in BSS to 200 μM) eye drop were topically administered to eyes three times a day. After 2 weeks (day 14), mice were intraperitoneal injection of 100 mg/kg of FITC-BSA for further 30 min to determine vascular lesions (hemorrhaging areas) in retina. Subsequently, the animals were euthanized by CO2 inhalation, and the eyes were enucleated and fixed with 4% PFA for overnight at 4° Cand flat-mounted onto glass slides to obtain optical sections. Vascular lesions in the retina was scored in all four retinal quadrants of flat mounts by an epifluorescence microscopy at 200×. Three microscopic fields were sampled in each quadrant in both the central and peripheral retina, and data were presented as the average number of lesions/retina.
# Microscopic appearance of degenerate capillaries in the I/R-induced retina are similar to that of acellular capillaries found in diabetic retinopathy. […]
# [2] = tested on: STZ-induced diabetic mice; assay: GFAP immunofluorescence staining of retina of STZ-induced diabetic mice; format: in vivo, mouse; conditions: eye drop, 14 days after STZ injection, vehicle/STZ 24.3±2.7
# Experimental: Deparaffinized retinal sections were blocked with 10% goat serum and 5% bovine serum albumin (BSA) in PBS containing 0.5% TritonX-100 (PBST) for 20 min at room temperature for blocking nonspecific staining. Staining was performed using primary antibodies against glial fibrillary acidic protein (GFAP) (1:100 dilution) or Iba-1 (1:100 dilution) at 37° C. for 3 h. The slides were subsequently incubated with the appropriate fluorescent-labeled secondary antibodies (1:500 dilution) at 37° C. for 1 h and then counterstained with Hoechst 33258 for 6 min. The slides were then rinsed with PBST three times, mounted with FluorSave™ reagent (Calbiochem) and viewed with an epifluorescence microscope (Zeiss Axioplan 2 imaging; Zeiss, Oberkochen, Germany) Three sections per eye were averaged and the mean of six eyes was recorded as the representative value for each group.
# Diabetic mice were generated by intraperitoneal injection of streptozotocin (STZ; 200 mg/kg body weight) at day 1 and day 3. STZ was freshly prepared in 0.1 M citrate buffer (pH 4.5). After injection, mice were supplied with 10% sucrose overnight to prevent sudden hypoglycaemic shock. […] Vascular lesions in the retina was scored in all four retinal quadrants of flat mounts by an epifluorescence microscopy at 200×. […]
# IL-1β mRNA = assay: Hyperosmotic stress-induced IL-1β gene expression in rabbit corneal epithelial cells (qPCR); format: cell-based; conditions: 20 μM peptide 6 h, then hyperosmotic medium (463 mOsM) 3 h, solvent 4.5-fold
# Experimental: Total RNA was extracted from cells using TRIzol (Invitrogen). Synthesis of cDNA was performed with 1 μg of total RNA at 50° C. for 50 min using oligo(dT) primers and reverse transcriptase (Superscript III; Invitrogen). Briefly, quantification of cDNA was performed in the LightCycler (Roche, Mannheim, Germany) using the DNA Master SYBR Green I kit (Roche) with the following cycling conditions: initial denaturation at 95° C. for 10 min, followed by 40 cycles at 95° C. for 10 s, 60° C. for 10 s, and 72° C. for 10 s and a 5-min terminal incubation at 72° C. The data were calculated with AACt. The expression was then normalized against the expression of glyceraldehyde-3-phosphate dehydrogenase (GAPDH). The PCR primers were mouse Survivin sense, 5′-[…]-3′ (SEQ ID NO: 27), anti-sense, 5′-[…]-3′ (SEQ ID NO: 28) (accession number: NM_001012273.1; PCR product: 136 bp); mouse GAPDH sense, 5′-[…]-3′ (SEQ ID NO: 29), anti-sense, 5′-[…]-3′ (SEQ ID NO: 30) (NM_001289726.1; 149 bp). For analysis rabbit inflammatory gene expression, The PCR primers were rabbit TNF-αsense, 5′-[…]-3′ (SEQ ID NO: 31), anti-sense, 5′-[…]-3′ (SEQ ID NO: 32) (accession number: NM 001082263.1); rabbit IL-1βsense, 5′-[…]-3′(SEQ ID NO: 33), anti-sense, 5′-[…]-3′ (SEQ ID NO: 34) (NM 001082201.1); rabbit GAPDH sense, 5′-[…]-3′ (SEQ ID NO: 35), anti-sense, 5′-[…]-3′ (SEQ ID NO: 36) (accession number:NM 001082253.1). The cycle threshold (Ct) values of the PCR product and a GAPDH (Glyceraldehyde 3-phosphate dehydrogenase) control mRNA were used to calculate relative quantities of mRNA.
# Limbal stem epithelial cells (LSEC) were isolated from 6-month-old New Zealand white rabbits and continuously cultivated for 14 days byDMEM/F-12basalmedium based cell-suspension culture to achieve corneal-liked epithelial cell differentiation as previously described (Ho et al., Stem Cells. 2013; 31:1775). […] After 3 h, quantitative real-time PCR was used to estimate HOP-induced Tumor necrosis factor (TNF)-α and nterleukin-1 beta (IL-1β) expressions. […]
# survivin mRNA = assay: Real-time qPCR of survivin mRNA in C2C12 cells; format: cell-based, mouse; conditions: stimulated for 3 h
substance,measurement,setting,value
NH2-(D-Ser)-Leu-Gly-Ala-Glu-Gln-COOH (SLGAEQ; HELM PEPTIDE1{[dS].L.G.A.E.Q}$$$$V2.0; SMILES CC(C)C[C@H](NC(=O)[C@H](N)CO)C(=O)NCC(=O)N[C@@H](C)C(=O)N[C@@H](CCC(=O)O)C(=O)N[C@@H](CCC(N)=O)C(=O)O) [6-mer dS],STAT3 phosphorylation (immunoblot),STAT3,led to STAT3 phosphorylation
same,numbers of vascular lesions (hemorrhaging areas in a retina),[1],2.8±0.6 lesions/retina
same,GFAP-positive astrocytes,[2],11.0±1.4 numbers/400× field
same,"mRNA expression of IL-1β, in words",IL-1β mRNA,apparently repressed the mRNA expression of TNF-α and IL-1β
same,level of survivin mRNA compared to solvent-treated cells,survivin mRNA,2.6 fold

# — patent US12221494B2, “Short synthetic peptides and their uses for treating retinal degenerative diseases and/or tissue injuries” (MacKay Memorial Hospital, priority 2019, dated 2025)
